Reference: patent US20180185325A1, “12H-BENZO[b]XANTHEN-12-ONES, COMPOSITIONS CONTAINING, AND USES OF, SAME” (Thesan Pharmaceuticals, Inc., priority 2015, published 2018)

Assays:
[1] = test system: CYP1A1 enzyme; test: EROD assay in HepG2 cells (cleavage of 7-ethoxyresorufin to resorufin); assay type: cell-based, human; conditions: 10 uM, 24 h
Method: (§1) HepG2 cells are seeded at between 1×10^4 and 2.5×10^4 cells/well in a 96-well microtitre plate. […] The formation of resorufin is quantified by fluorometry with a fluorescence plate reader. Fluorescence is determined at λex 570 nm and λem 590 nm. […] The remaining (i.e. all cells present at the beginning of analysis, since only supernatant is taken to assay EROD) live cells are subsequently utilized for the MIT cytotoxicity assay. […] The medium is carefully removed, then MIT formazan is solubilized by adding 200 μl of DMSO and subsequently mixed on a plate shaker. The absorbance is measured spectrophotometrically at 550 nm and background absorbance at 690 nm is subtracted.

[2] = test system: CYP1A1 mRNA; test: CYP1A1 mRNA assay in HepG2 cells (RT-PCR); assay type: cell-based, human; conditions: 24 h incubation, 10 uM, normalized to 18S rRNA
Method: HepG2 cells (American Type Culture Collection (ATCC), Manassas, Va.) were cultured using Eagle's minimal essential medium (ATCC), supplemented with 10% fetal calf serum (Invitrogen Life Technologies). […] Cells were plated at a seeding density of 3.8×10^5 cells per well on 6-well plates (Corning Costar, NY, U.S.A.). Cells were allowed to attach for 24 h in a 37° C. humidified incubator with a 5% CO2 atmosphere. Media was replaced with that containing test agents or vehicle (0.1% dimethylsulphoxide) and cells incubated for a further 24 h. Following the 24 h incubation with test agents, media was removed and RNA prepared using the Purelink RNA mini kit (ThermoFischer, Carlsbad, Calif.). Nucleic acid concentration was determined using a Nanodrop™ spectrophotometer (ThermoScientific) by measuring the OD at 260 nm and RNA purity was evaluated using the OD 260/280 nm ratio. 1 μg RNA was reverse transcribed using SuperScript®VILO™ (ThermoFischer) with cDNA synthesis performed using the following parameters: 10 min at 25° C., 2 h at 42° C., 5 min at 85° C. (deactivation) followed by a completion temperature of 4° C. […] Each sample (1 μl) was pipetted into a 96-well optical reaction plate (Applied Biosystems, Carlsbad, Calif.). […] Results were analyzed by calculating the fold change of CYP1A1 mRNA levels normalized to 18S rRNA (ΔΔCt) in compound treated cells or tissues compared to vehicle levels.

[3] = test system: HepG2 cells; test: MTT cytotoxicity assay in HepG2 cells; assay type: cell-based, human; conditions: HepG2 cells, MTT
Method: as §1

[4] = test system: CYP1A1 enzyme; test: EROD assay in human cultured sebocytes; assay type: cell-based; conditions: 10 uM, 24 h
Method: (§2) Cells are seeded at between 1×10^4 and 2.5×10^4 cells/well in a 96-well microtitre plate. […] The formation of resorufin is quantified by fluorometry with a fluorescence plate reader. Fluorescence is determined at λex 570 nm and […]. The amount of resorufin is calculated from a standard curve generated using 0 to 1 μM resorufin in water at 34 log dilutions. The remaining (i.e. all cells present at the beginning of analysis, since only supernatant is taken to assay EROD) live cells are subsequently utilized for the MIT cytotoxicity assay. MIT is made up in serum-free medium at 5 mg/ml. then added to the cells giving a final concentration of 10% (0.5 mg/ml MIT final) then incubated for 2 h. The medium is carefully removed, then MTT formazan is solubilized by adding 200 μl of DMSO and subsequently mixed on a plate shaker. The absorbance is measured spectrophotometrically at 550 nm and background absorbance at 690 nm is subtracted. A standard curve generated using MTT formazan (dissolved in DMSO) from 0-200 μM (0, 2, 5, 10, 20, 50, 100, 200 μM) is used to calculate the final experimental values which are then expressed as (μmol resorufin/mol MIT formazan) or as fold-induction compared to solvent.

[5] = test system: human sebocyte cells; test: MTT cytotoxicity assay in human cultured sebocytes; assay type: cell-based
Method: as §2

Structure (SMILES): O=c1cc(-c2ccccc2)oc2ccc3ccccc3c12 [Compound D, 3-Phenyl-1H-benzo[f]chromen-1-one, reference compound]
- % change vs. TCDD EROD (HepG2) at 10 uM [1]: 19%
- CYP1A1 mRNA fold change from vehicle [2]: 596 fold
- Toxicity threshold [3]: >50 µM
- % change vs. TCDD EROD (Sebs) at 10 uM [4]: 17%
- Toxicity threshold [5]: 30 µM
